From patent US7550485B2, “Substituted N-heterocycle derivatives and methods of their use” (Wyeth, priority 2003, dated 2009) come the findings set out here.

Structures can show the parent of a compound that is named as a salt.

The target in one test is T1, hNET (Homo sapiens, UniProt P23975).
T1 construct: expressed in transfected cells
T1 sequence (P23975 whole entry): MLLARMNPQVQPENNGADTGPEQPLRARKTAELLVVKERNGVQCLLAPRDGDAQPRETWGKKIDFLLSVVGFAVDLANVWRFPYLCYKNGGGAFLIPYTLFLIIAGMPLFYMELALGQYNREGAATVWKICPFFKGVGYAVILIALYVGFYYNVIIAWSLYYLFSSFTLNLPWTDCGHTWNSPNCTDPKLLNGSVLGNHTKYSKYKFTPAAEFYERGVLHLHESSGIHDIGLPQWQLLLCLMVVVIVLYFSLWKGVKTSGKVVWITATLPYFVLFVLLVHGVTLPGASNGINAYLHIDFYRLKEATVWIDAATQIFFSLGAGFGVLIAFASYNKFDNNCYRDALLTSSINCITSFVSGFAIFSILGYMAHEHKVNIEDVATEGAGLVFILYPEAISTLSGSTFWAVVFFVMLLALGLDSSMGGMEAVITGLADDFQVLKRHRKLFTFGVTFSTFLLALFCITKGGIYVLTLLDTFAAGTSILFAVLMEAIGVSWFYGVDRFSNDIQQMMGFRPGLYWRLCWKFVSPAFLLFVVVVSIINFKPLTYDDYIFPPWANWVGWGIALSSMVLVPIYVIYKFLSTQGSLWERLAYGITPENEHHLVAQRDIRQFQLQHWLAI
Nature of the test: Norepinephrine (NE) uptake assay in MDCK-Net6 cells stably transfected with human hNET. As to conditions: MDCK-Net6, 1 μM test compound, [3H]NE uptake. It counts as cell-based. A digest of the protocol: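 MDCK-Net6 cells preincubated 20 min at 37 °C with compound (1 to 10,000 nM) in HEPES buffer pH 7.4 with pargyline and ascorbate, then 5 min [3H]NE uptake (120 nM final). Lysed cells counted by scintillation; 1 μM desipramine defined minimum uptake; EC50 from logistic fit of pooled data.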
The term inhibition denotes the share of the control response that was lost under treatment. Read a low inhibition as a weak effect. For `CN(C)[C@@H]1CCN(CC(c2cccc(OC(F)(F)F)c2)C2(O)CCCCC2)C1` (stereo partly drawn) [Example 219, 1-{2-[(3R)-3-(dimethylamino)pyrrolidin-1-yl]-1-[3-(trifluoromethoxy)phenyl]ethyl}cyclohexanol dihydrochloride], the inhibition at 1 µM was 53.1%.

`COc1ccc(C(CN2CCC(N(C)C)CC2)C2(O)CCCCC2)cc1Br` (centres unmarked) [Example 318, 1-{1-(3-bromo-4-methoxyphenyl)-2-[4-(dimethylamino)piperidin-1-yl]ethyl}cyclohexanol dihydrochloride] registered an inhibition at 1 µM of 84%. On the same count and under the same terms, the same measure for `NC1CCN(CC(c2ccc(OCc3ccccc3)c(Cl)c2)C2(O)CCCCC2)CC1` (centres unmarked) [Example 428, 1-{2-(4-aminopiperidin-1-yl)-1-[4-(benzyloxy)-3-chlorophenyl]ethyl}cyclohexanol dihydrochloride]: 92%. The compound `N[C@H]1CCN(CC(c2cccc3ccccc23)C2(O)CCCCC2)C1` (stereo partly drawn) [Example 207, 1-[2-[(3S)-3-aminopyrrolidin-1-yl]-1-(1-naphthyl)ethyl]cyclohexanol dihydrochloride] had an inhibition at 1 µM of 65.7%.

`OC1(C(CN2CCC(N3CCCC3)CC2)c2ccc(Cl)c(Cl)c2)CCCCC1` (centres unmarked) [Example 11, 1-[1-(3,4-dichlorophenyl)-2-(4-pyrrolidin-1-ylpiperidin-1-yl)ethyl]cyclohexanol dihydrochloride] returned an inhibition at 1 µM of 91%.

`COc1cc(C(CN2CCC(N)CC2)C2(O)CCCCC2)ccc1OCc1ccccc1` (centres unmarked) [Example 450, 1-{2-(4-aminopiperidin-1-yl)-1-[4-(benzyloxy)-3-methoxyphenyl]ethyl}cyclohexanol dihydrochloride] came in with an inhibition at 1 µM of 79%. In turn, `CN[C@H]1CCN(CC(c2cccc(C(F)(F)F)c2)C2(O)CCCCC2)C1` (stereo partly drawn) [Example 220, 1-{2-[(3S)-3-(methylamino)pyrrolidin-1-yl]-1-[3-(trifluoromethyl)phenyl]ethyl}cyclohexanol dihydrochloride] came in with an inhibition at 1 µM of 27.3%. On the same count and under the same terms, the same measure for `CN[C@H]1CCN(CC(c2ccc(OCc3ccccc3)c(Cl)c2)C2(O)CCCCC2)C1` (stereo partly drawn) [Example 209, 1-{1-[4-(benzyloxy)-3-chlorophenyl]-2-[(3S)-3-(methylamino)pyrrolidin-1-yl]ethyl}cyclohexanol dihydrochloride]: 98.5%; for `CN(C)[C@@H]1CCN(CC(c2cccc(C(F)(F)F)c2)C2(O)CCCCC2)C1` (stereo partly drawn) [Example 225, 1-{2-[(3R)-3-(dimethylamino)pyrrolidin-1-yl]-1-[3-(trifluoromethyl)phenyl]ethyl}cyclohexanol dihydrochloride]: 84%; for `OC1(C(CN2CCC(N3CCCCC3)CC2)c2ccc3ccccc3c2)CCCCC1` (centres unmarked) [Example 22, 1-[2-(1,4′-bipiperidin-1′-yl)-1-(2-naphthyl)ethyl]cyclohexanol dihydrochloride]: 85%. Take `NC1CCN(CC(c2cccc3ccccc23)C2(O)CCCCC2)CC1` (centres unmarked) [Example 54, 1-[2-(4-aminopiperidin-1-yl)-1-(1-naphthyl)ethyl]cyclohexanol dihydrochloride]: the inhibition at 1 µM came to 39%. Same read-out and setting: the same measure for `CN(C)[C@@H]1CCCN(CC(c2cccc(OC(F)(F)F)c2)C2(O)CCCCC2)C1` (stereo partly drawn) [Example 188, 1-{2-[(3R)-3-(dimethylamino)piperidin-1-yl]-1-[3-(trifluoromethoxy)phenyl]ethyl}cyclohexanol dihydrochloride]: 17.6%. Same read-out and setting: the same measure for `N[C@@H]1CCN(CC(c2ccc(OCc3ccccc3)c(Cl)c2)C2(O)CCCCC2)C1` (stereo partly drawn) [Example 383, 1-{2-[(3R)-3-aminopyrrolidin-1-yl]-1-[4-(benzyloxy)-3-chlorophenyl]ethyl}cyclohexanol dihydrochloride]: 90%.

Compound `NC1CCN(CC(c2cccc(Oc3ccccc3)c2)C2(O)CCCCC2)CC1` (centres unmarked) [Example 315, 1-[2-(4-aminopiperidin-1-yl)-1-(3-phenoxyphenyl)ethyl]cyclohexanol dihydrochloride] had an inhibition at 1 µM of 75.2%.

`CN[C@@H]1CCN(CC(c2cccc3ccccc23)C2(O)CCCCC2)C1` (stereo partly drawn) [Example 379, 1-[2-[(3R)-3-(methylamino)pyrrolidin-1-yl]-1-(1-naphthyl)ethyl]cyclohexanol dihydrochloride] gave an inhibition at 1 µM of 19%.

With `CN(C)[C@H]1CCCN(CC(c2ccc(OCc3ccccc3)c(Cl)c2)C2(O)CCCCC2)C1` (stereo partly drawn) [Example 197, 1-{1-[4-(benzyloxy)-3-chlorophenyl]-2-[(3S)-3-(dimethylamino)piperidin-1-yl]ethyl}cyclohexanol dihydrochloride], 1 µM produced 76% inhibition.

The same test, now with this note: MDCK-Net6, 10 μM test compound (stated in cell), [3H]NE uptake.
Compound `CCCC(O)(CCC)C(CN1CCC(N)CC1)c1cccc(Cl)c1` (centres unmarked) [Example 282, 4-[2-(4-aminopiperidin-1-yl)-1-(3-chlorophenyl)ethyl]heptan-4-ol dihydrochloride] yielded an inhibition at 10 µM of 4.1%.

The same test, now with this note: [3H]NE uptake, test range 1 to 10,000 nM.
By EC50 is commonly meant the concentration giving half of the maximal effect. As to `NC1CCN(CC(c2ccc(OCc3ccccc3)c(Cl)c2)C2(O)CCCCC2)CC1` (centres unmarked) [Example 428, 1-{2-(4-aminopiperidin-1-yl)-1-[4-(benzyloxy)-3-chlorophenyl]ethyl}cyclohexanol dihydrochloride], it took 110 nM to reach a half-maximal effect (EC50).

Take `OC1(C(CN2CCC(N3CCCC3)CC2)c2ccc(Cl)c(Cl)c2)CCCCC1` (centres unmarked) [Example 11, 1-[1-(3,4-dichlorophenyl)-2-(4-pyrrolidin-1-ylpiperidin-1-yl)ethyl]cyclohexanol dihydrochloride]: it took 260 nM to reach a half-maximal effect (EC50). In the case of `OC1(C(CN2CCC(N3CCCCC3)CC2)c2ccc3ccccc3c2)CCCCC1` (centres unmarked) [Example 22, 1-[2-(1,4′-bipiperidin-1′-yl)-1-(2-naphthyl)ethyl]cyclohexanol dihydrochloride], it took 160 nM to reach a half-maximal effect (EC50).
